Tested on: Lung bronchial epithelial cells (16HBEo-)
Experimental: FIG. 14 illustrates the effects of a physiologic (10% linear), cyclic mechanical strain on the permeability of an epithelial barrier. Lung bronchial epithelial cells (16HBEo-) were seeded at a density of 250'000 cells/cm^2 onto the fibronectin-coated culturing membrane. The cells were allowed to adhere and to grow for 72 h. The cells were exposed to cyclic strain (10% linear, 0.2 Hz) for 19 h, whereas the control was kept at static conditions. […] After 2 h of incubation, the permeability of each molecule was measured with a fluorescence multiplate reader (Tecan Infinite M1000; Ex:460/Em:515 & Ex:553/Em:627).

With FITC-sodium the “transmembrane permeability of stretched cells compared to control cells in static conditions” value was “significantly increased transmembrane permeability”.

— patent US11473045B2, “Device for in-vitro modelling in-vivo tissues of organs” (priority 2013, dated 2022)
